The source of these data is ChEMBL document CHEMBL4765385, “Synthesis and biological evaluation of β-lapachone-monastrol hybrids as potential anticancer agents” (Eur J Med Chem, 2020).

Activity calls are given as the source filed them. The calls are words filed in the database; no cut-off is given here.

The nature of one series: in vitro. The note with it: human, L02 cells and A549 cells.
Series [1] has as its system HepG2. The series is described as follows: Antiproliferative activity against human HepG2 cells measured after 48 hrs by MTT assay. Particulars: HepG2, 48 h. On the technique in general: Tetrazolium dyes change colour on reduction, which living cells bring about.
Series [2] addresses NAD(P)H dehydrogenase [quinone] 1 (Homo sapiens, UniProt P15559). The series is described as follows: Substrate activity at recombinant human C-terminal His-tagged NQO1 (1 to 274 residues) expressed in Escherichia coli assessed as metabolic rate by measuring NADPH oxidation per micromol protein at 10 mmol/L measured at 5 secs interval for 1 min by UV-Visible Spectrophotometric method. It is filed as ADME.

Series [3] relates to A549. Kind of series: cells. The note with it: Homo sapiens, A549, 48 h.
The subject of series [4] is NCI-H596. Kind of series: Antiproliferative activity against human NCI-H596 cells measured after 48 hrs by MTT assay. Particulars: NCI-H596, 48 h. It is filed as functional, cell-based.
The subject of series [5] is A549. The series is described as follows: Antiproliferative activity against human A549 cells measured after 48 hrs in presence of NQO1 inhibitor dicoumarol by MTT assay. It is filed as functional, cell-based. Particulars: A549, 48 h.
The subject of the next series is L02. The series is described as follows: Cytotoxicity against human L02 cells measured after 48 hrs by MTT assay. Type of series: cell-based. Particulars: L02, 48 h.
Series [6] relates to HepG2. The series is described as follows: Antitumor activity against human HepG2 cells xenografted in BALB/c athymic nude mouse assessed as tumor growth inhibition at 20 mg/kg, iv administered at 2 days interval 19 days by caliper method relative to control. It is filed as functional. The note with it: 456 h, time 19 day, read-out: TGI.
The subject of series [7] is HepG2. The series is described as follows: Induction of reactive oxygen species production in human HepG2 cells at 5 uM measured after 5 hrs by DCFH-DA staining based flow cytometry. Type of series: functional, cell-based. In general terms: In flow cytometry, cells or beads pass a laser one at a time.
The test system of series [8] is NCI-H596. The series is described as follows: Induction of reactive oxygen species production in human NCI-H596 cells at 5 uM measured after 5 hrs by DCFH-DA staining based flow cytometry. It is filed as functional, cell-based.

Turning to `O=C1C(=O)c2cccc(Br)c2C2=C1C(c1cccc(O)c1)NC(=S)N2` (configuration not stated), the selectivity ratio in “in vitro” is 0.86. The IC50 (in general, the concentration that inhibits the measured activity by half) with HepG2 [1] was 2890 nM; in the series with A549 [3], 1940 nM; with NCI-H596 [4], 1980 nM; in the series on A549 [5], 2020 nM; in the series with L02 it was 1660 nM. Also, in series [2], the Drug metabolism was 2012 micromol/min/micromol protein.

Consider `COc1cc2c(cc1OC)C1=C(C(=O)C2=O)C(c2cccc(O)c2)NC(=S)N1` (configuration not stated), for which the selectivity ratio in “in vitro” was 0.97. The IC50 was determined as 1530 nM in the series on HepG2 [1]; 1770 nM with A549 [3]; 1760 nM in the series on NCI-H596 [4]; 1490 nM in the series on A549 [5]; 1710 nM in the series with L02. In addition, in [2], the Drug metabolism is 614 micromol/min/micromol protein.

Regarding `O=C1C(=O)c2ccccc2C2=C1C(c1cc(O)cc(Cl)c1)NC(=S)N2` (configuration not stated), the selectivity ratio in the series “in vitro” was 4.77. Besides, the concentration for half-maximal inhibition (IC50) in the series with HepG2 [1] worked out at 1690 nM; in the series with A549 [3], 960 nM; in the series on NCI-H596 [4], 17100 nM; in the series on A549 [5], 1430 nM; in the series with L02, 4580 nM. The Drug metabolism in [2] is listed as 941 micromol/min/micromol protein.

With `O=C1C(=O)c2ccccc2C2=C1C(c1cccc(O)c1Cl)NC(=S)N2` (configuration not stated), in “in vitro”, the selectivity ratio came out at 1.61. Further, the IC50 stood at 1400 nM in the series with HepG2 [1]; 1020 nM in the series with A549 [3]; 3090 nM in the series with NCI-H596 [4]; 1330 nM with A549 [5]; 1640 nM in the series with L02. Further, the Drug metabolism in series [2] is on record as 1273 micromol/min/micromol protein.

On to `COc1ccc2c(c1)C1=C(C(=O)C2=O)C(c2cccc(O)c2)NC(=S)N1` (configuration not stated), for which, in “in vitro”, the selectivity ratio was 5.83. For the same compound, the IC50 in the series with HepG2 [1] was 1570 nM; in the series on A549 [3], 300 nM; with NCI-H596 [4] it was 2200 nM; in the series on A549 [5], 1190 nM; with L02, 1750 nM. Besides, the Drug metabolism in [2] is listed as 997 micromol/min/micromol protein.

As for `O=C1C(=O)c2cc(F)ccc2C2=C1C(c1cccc(O)c1)NC(=S)N2` (configuration not stated), the selectivity ratio in the series “in vitro” was determined as 1.71. The IC50 with HepG2 [1] worked out at 1340 nM; in the series on A549 [3], 870 nM; with NCI-H596 [4], 1580 nM; in the series with A549 [5], 1590 nM; in the series on L02, 1490 nM. Moreover, in [2], the Drug metabolism is recorded as 1513 micromol/min/micromol protein.

In the case of `CCOC(=O)C1=C(C)NC(=S)NC1c1cccc(O)c1` (configuration not stated) [MONASTROL], the Drug metabolism entry in series [2] was “Metabolite_Notdetected”.

Take `O=C1C(=O)c2ccccc2C2=C1C(c1cccc(O)c1)NC(=S)N2` (configuration not stated): the selectivity ratio in “in vitro” stood at 7.78. For the same compound, the IC50 in the series on HepG2 [1] is 2120 nM; in the series on A549 [3], 370 nM; in the series on NCI-H596 [4], 2490 nM; in the series on A549 [5], 1710 nM; with L02, 2880 nM. In addition, the Drug metabolism in series [2] was 1128 micromol/min/micromol protein.

Take `CC1(C)CCC2=C(O1)c1ccccc1C(=O)C2=O` [LAPACHONE]: in the series with HepG2 [6], the inhibition in vivo at 20 mg/kg is 67.4%. Further, in the series “in vitro”, the selectivity ratio was 1.37. For the same compound, the IC50 stood at 2830 nM in the series on HepG2 [1]; 3320 nM in the series on A549 [3]; 5060 nM in the series on NCI-H596 [4]; 6000 nM in the series with A549 [5]; 4540 nM with L02. Further, the outcome in the series with HepG2 [7] and in the series with NCI-H596 [8] was Active.

Consider `O=C1C(=O)c2ccccc2C2=C1C(c1cc(O)ccc1Br)NC(=S)N2` (configuration not stated), for which the selectivity ratio in the series “in vitro” is 3.15. For the same compound, the half-inhibitory concentration (IC50) in the series with HepG2 [1] came out at 1310 nM; in the series with A549 [3], 480 nM; in the series with NCI-H596 [4] it was 1610 nM; with A549 [5], 1550 nM; with L02 it was 1510 nM. In addition, the Drug metabolism in series [2] is given as 1083 micromol/min/micromol protein.

`O=C1C(=O)c2ccc(Cl)cc2C2=C1C(c1cccc(O)c1)NC(=S)N2` (configuration not stated): the selectivity ratio in “in vitro” was determined as 1.77. Moreover, the IC50 with HepG2 [1] stood at 1380 nM; in the series with A549 [3], 950 nM; with NCI-H596 [4], 1560 nM; in the series with A549 [5], 1260 nM; in the series with L02, 1680 nM. The Drug metabolism in series [2] was 2398 micromol/min/micromol protein.

With `O=C1C(=O)c2ccccc2C2=C1C(c1cc(O)ccc1F)NC(=S)N2` (configuration not stated), the selectivity ratio in the series “in vitro” was determined as 1.59. Besides, the IC50 was found to be 1190 nM in the series on HepG2 [1]; 980 nM in the series with A549 [3]; 7690 nM in the series on NCI-H596 [4]; 1510 nM with A549 [5]; 1560 nM with L02. Besides, the Drug metabolism in series [2] is 528 micromol/min/micromol protein.

Regarding `O=C1C(=O)c2ccccc2C2=C1C(c1ccc(Cl)c(O)c1)NC(=S)N2` (configuration not stated), the selectivity ratio in “in vitro” came out at 2.47. For the same compound, the IC50 in the series on HepG2 [1] stood at 1580 nM; with A549 [3] it was 640 nM; in the series on NCI-H596 [4], 1810 nM; in the series on A549 [5], 1410 nM; with L02 it was 1580 nM. Also, in series [2], the Drug metabolism was 734 micromol/min/micromol protein.

In the case of `COc1cccc2c1C(=O)c1c(O)c3c(c(O)c1C2=O)C[C@@](O)(C(=O)CO)C[C@@H]3O[C@H]1C[C@H](N)[C@H](O)[C@H](C)O1` [DOXORUBICIN], the IC50 was 1320 nM in the series with A549 [3], 1080 nM in the series on NCI-H596 [4], 1200 nM in the series on A549 [5] and 2180 nM in the series on L02.

Take `O=C1C(=O)c2ccccc2C2=C1C(c1cc(O)cc(Br)c1)NC(=S)N2` (configuration not stated): the selectivity ratio in the series “in vitro” is 1.26. For the same compound, the IC50 with HepG2 [1] came out at 3200 nM; with A549 [3] it was 2420 nM; in the series with NCI-H596 [4], 7600 nM; in the series with A549 [5], 3000 nM; with L02, 3050 nM. Also, the Drug metabolism in series [2] is reported as 852 micromol/min/micromol protein.

Turning to `Cc1cc(O)cc(C2NC(=S)NC3=C2C(=O)C(=O)c2ccccc23)c1` (configuration not stated), the selectivity ratio in “in vitro” was 17.2. Further, the IC50 in the series on HepG2 [1] is 1340 nM; in the series with A549 [3] it was 490 nM; in the series with NCI-H596 [4] it was 10900 nM; with A549 [5] it was 1210 nM; in the series on L02, 8410 nM. Besides, in series [2], the Drug metabolism is 539 micromol/min/micromol protein.

With `COc1ccc2c(c1)C1=C(C(=O)C2=O)C(c2cc(C)cc(O)c2)NC(=S)N1` (configuration not stated), the selectivity ratio in “in vitro” was found to be 5.81. Further, the half-maximal inhibitory concentration (IC50) was determined as 1700 nM in the series on HepG2 [1]; 320 nM in the series on A549 [3]; 2520 nM in the series on NCI-H596 [4]; 1500 nM with A549 [5]; 1860 nM with L02. In addition, the Drug metabolism in series [2] was 1427 micromol/min/micromol protein.
